One data set concerns L1210. The experiment in a line: cells. Type of data set: cell-based, mouse. In short, it runs like this:
(§1)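 Compound exposure ran 72 h at six concentrations (0–1000 nM or 0–10000 nM, duplicate) on cells plated at 30,000 cells/mL in 10% FBS DMEM. A closing 37 °C incubation took 15 min (HCT116) or 5 min (L1210).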

Another data set can be described thus: cells. In kind it is cell-based, human. As to conditions: range over L1210 and HCT116, stated in text; read-out: IC50 against vinblastine-sensitive cell lines. The gist of the method: as §1
Another data set relates to HCT116. The experiment in a line: cells. In kind it is cell-based, human. Particulars: for pIC50: read-out: IC50 HCT116. In short, it runs like this: as §1
The subject of the next data set is HCT116/VM46. The experiment in a line: cells. In kind it is cell-based, human. As to conditions: for IC50: Table 10, read-out: IC50 (nM), HCT116/VM46. On the procedure: Compounds were tested for their cell growth inhibition of L1210 (ATCC no. CCL-219, mouse lymphocytic leukemia), HCT116 (ATCC no. CCL-247, human colorectal carcinoma), and HCT116/VM46 (a vinblastine-resistant strain of HCT116) cells in culture. A population of cells (>1×10^6 cells/mL as determined with a hemocytometer) was diluted with Dulbecco's Modified Eagle Medium (DMEM, Gibco) containing 10% fetal bovine serum (FBS, Gibco) to give a final concentration of 30,000 cells/mL. To each well of a 96-well plate (Corning® Costar®) was added 100 μL of the cell media solution with a multichannel pipet. The cultures were incubated at 37° C. in an atmosphere of 5% CO2 and 95% humidified air for 24 hours.
The test compounds were then added to the plate as follows: test compounds were diluted in DMSO to a concentration of 1 mM. 10-Fold serial dilutions in DMSO were next performed on a separate 96-well plate. Fresh culture media (100 μL) was added to each well of cells resulting in 200 μL of medium per well followed by 2 μL of each test agent. Compounds were tested in duplicate (n=2-8 times) at six concentrations between 0-1000 nM or 0-10000 nM. Following the addition of compound, cultures were incubated for an additional 72 hours.
The plates were incubated at 37° C. for 5 minutes (L1210) or 15 min (HCT116 and HCT116/VM46). After the given incubation time, 50 μL of 0.1 N NaOH was added to each well and the absorption at 405 nm was determined using a 96 well plate reader. […]

A further data set relates to A549-T24. Briefly: cells. In kind it is cell-based, human. An excerpt: (§2) 2001, 98:11737; Kavallaris et al., Brit. J. Cancer. 1999, 80:1020; and Kavallaris et al., J. Clin. Invest. 1997, 100:1282]. As a result, the comparison of cell growth inhibition of candidate drugs against A549 vs A549-T24 has been used to characterize potential resistance due to increased expression of class III β-tubulin [Goncalves et al., Proc. Natl. Acad. Sci. USA. 2001, 98:11737; Kavallaris et al., Brit. J. Cancer. 1999, 80:1020; and Kavallaris et al., J. Clin. Invest. 1997, 100:1282].

A further data set has as its system A549. The experiment in a line: cells. Type of data set: cell-based, human. Particulars: read-out: IC50 A549.
From the text: as §2

For another data set, the system named is Tubulin. Particulars: for % displacement: Table 9, displacement of tubulin bound BODIPY-vinblastine.
The next data set has as its target Pgp (Homo sapiens, UniProt P08183). Briefly: Drug-stimulated Pgp ATPase activity in membranes (MDR1 PREDEASY ATPase kit).
[1] abbreviates: Table 6, read-out: IC50 HCT116/VM46.

pIC50: −log10 of the molar value. In brackets after ≈: the same amount, converted by molar mass. Where two headings read alike, the source gives them in different places.

Pgp, sequence (P08183 whole entry): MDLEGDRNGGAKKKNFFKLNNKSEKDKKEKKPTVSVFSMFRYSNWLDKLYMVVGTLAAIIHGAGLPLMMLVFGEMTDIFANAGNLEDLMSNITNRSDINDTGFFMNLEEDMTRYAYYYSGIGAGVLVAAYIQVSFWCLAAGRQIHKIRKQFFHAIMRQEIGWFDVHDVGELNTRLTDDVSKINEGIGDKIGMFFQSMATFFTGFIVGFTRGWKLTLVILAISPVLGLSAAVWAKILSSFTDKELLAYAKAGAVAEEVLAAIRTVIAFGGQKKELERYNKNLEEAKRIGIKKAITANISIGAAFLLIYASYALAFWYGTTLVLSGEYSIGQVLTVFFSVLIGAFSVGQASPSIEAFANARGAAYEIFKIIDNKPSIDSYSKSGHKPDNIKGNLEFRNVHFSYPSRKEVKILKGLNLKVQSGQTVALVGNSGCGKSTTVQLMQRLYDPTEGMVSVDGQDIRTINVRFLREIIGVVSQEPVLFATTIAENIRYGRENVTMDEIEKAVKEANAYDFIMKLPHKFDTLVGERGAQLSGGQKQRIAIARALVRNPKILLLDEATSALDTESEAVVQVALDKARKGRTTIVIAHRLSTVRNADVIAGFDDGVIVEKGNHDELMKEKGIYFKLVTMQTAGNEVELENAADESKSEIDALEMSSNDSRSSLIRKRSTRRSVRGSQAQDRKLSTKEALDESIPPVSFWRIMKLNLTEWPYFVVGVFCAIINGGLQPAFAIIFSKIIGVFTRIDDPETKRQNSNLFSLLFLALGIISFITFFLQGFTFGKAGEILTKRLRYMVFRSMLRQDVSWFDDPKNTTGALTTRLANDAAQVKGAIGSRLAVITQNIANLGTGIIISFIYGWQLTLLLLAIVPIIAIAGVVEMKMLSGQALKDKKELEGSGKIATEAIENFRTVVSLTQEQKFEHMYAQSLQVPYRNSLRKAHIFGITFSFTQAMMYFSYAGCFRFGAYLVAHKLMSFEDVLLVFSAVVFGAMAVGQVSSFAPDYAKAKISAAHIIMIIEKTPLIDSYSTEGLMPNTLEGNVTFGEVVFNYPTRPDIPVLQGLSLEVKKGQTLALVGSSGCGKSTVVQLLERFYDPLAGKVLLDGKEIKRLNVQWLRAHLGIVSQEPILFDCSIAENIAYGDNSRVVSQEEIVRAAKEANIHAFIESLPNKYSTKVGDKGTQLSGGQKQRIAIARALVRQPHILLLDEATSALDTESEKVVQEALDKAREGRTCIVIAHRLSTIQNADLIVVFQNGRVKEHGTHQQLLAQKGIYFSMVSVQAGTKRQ
Protocol for Tubulin: Control studies were performed with BODIPY-VBL in the absence of a competitive ligand (control 1, maximum FI enhancement) and in the absence of tubulin (control 2, no FI enhancement). Percent (%) BODIPY-VBL displacement was calculated by the formula: (control 1 FI−experiment FI)/(Control 1 FI−Control 2 FI)×100%. Reported values are the average of 5 measurements±SD.

As for `CCC1(NC(=O)c2ccc3c(c2)CCCO3)CC2CN(CCc3c([nH]c4ccccc34)C(C(=O)OC)(c3cc4c(cc3OC)N(C)C3C(O)(C(=O)OC)C(OC(C)=O)C5(CC)C=CCN6CCC43C65)C2)C1` (stereo not shown) [Compound 173], the pIC50 in the data set with L1210 was 9.40; in the data set with L1210 (Table 6), 9.40; in “cells”, 9.30 to 9.40; with HCT116 (Table 6), 9.30; with HCT116, 9.30; in the data set with HCT116/VM46 (setting [1]), 8.74. Further, the pIC50 in the data set with HCT116/VM46 (read-out: IC50 HCT116/VM46) was 8.74; in the data set on HCT116/VM46 (read-out: IC50 against resistant HCT116 cell line), 8.74; with A549-T24, 9.10; in the data set with A549, 8.85. The IC50 with HCT116 (Table 9, read-out: IC50 (nM, HCT116)) stood at 0.5 nM; in the data set with HCT116 (Table 10, read-out: IC50 (nM), HCT116), 0.5 nM; with HCT116/VM46 it was 1.8 nM. Moreover, the “differential in activity between sensitive and resistant HCT116 cell lines” value with HCT116/VM46 (HCT116/VM46 vs HCT116) was found to be 3.8 fold. In addition, the “% displacement” value in the data set with Tubulin was 98 ± 7%.
As to `CC[C@]1(O)C[C@@H]2CN(CCc3c([nH]c4ccccc34)[C@@](C(=O)OC)(c3cc4c(cc3OC)N(C)[C@H]3[C@@](O)(C(=O)OC)[C@H](OC(C)=O)[C@]5(CC)C=CCN6CC[C@]43[C@@H]65)C2)C1` [Vinblastine (1), Vinblastine, reference compound], the pIC50 with L1210, in the data set on L1210 (Table 1), in the data set on L1210 (Table 2), with L1210 (Table 3), in the data set with L1210 (Table 4) and in the data set on L1210 (Table 5) was 8.22 throughout. Besides, the pIC50 with L1210 (Table 6) is 8.22; with L1210 (Table 7, C20′ sulfonamides) it was 8.22; with L1210 (Table 8, 10′-F compounds) it was 8.22; in the data set with HCT116/VM46 (Table 1, read-out: IC50 HCT116/VM46), 6.22; in the data set on HCT116/VM46 (Table 2, read-out: IC50 HCT116/VM46) it was 6.22; in the data set on HCT116/VM46 (Table 3, read-out: IC50 HCT116/VM46), 6.22. Besides, the pIC50 in the data set on HCT116/VM46 (Table 4, read-out: IC50 HCT116/VM46) was 6.22; with HCT116/VM46 (Table 5, read-out: IC50 HCT116/VM46) it was 6.22; in the data set on HCT116/VM46 (setting [1]), 6.22; in the data set on HCT116/VM46 (Table 7, C20′ sulfonamides, read-out: IC50 HCT116/VM46), 6.22; with HCT116/VM46 (Table 8, 10′-F compounds, read-out: IC50 HCT116/VM46) it was 6.22; in the data set with HCT116/VM46 (read-out: IC50 HCT116/VM46), 6.22. The pIC50 was 6.22 with HCT116/VM46 (table in Background, C20′ substituent X, read-out: IC50, HCT116/VM46); 8.17 in the data set on A549-T24; 8.11 with A549. The “MIC, HCT116/VM46 cells” value against HCT116/VM46 stood at 0.6 µM (≈ 0.487 µg/mL). In the data set on HCT116/VM46, the “differential in activity between sensitive and resistant HCT116 cell lines” value was 88 fold. Besides, the IC50 with HCT116/VM46 came to 600 nM. Further, the “percent (%) displacement of tubulin-bound BODIPY-vinblastine” value in the data set on Tubulin (FIG. 2, competitive ligand 18 μM) is 50%. Further, the “% displacement” value with Tubulin is 61 ± 13%. The “Papp, B to A” value in the data set with Caco-2 cells was 38.2 ± 2.0 x 10^−6 cm/s. Further, the “% Pgp ATPase activity” value on Pgp was 87%.

Source of the values: patent US10689381B2 (priority 2017, dated 2020).
